Earlier results in patent publication US20030143247A1, “Antiviral compositions and methods for identification and use” (priority 2002, published 2003).

Legend:
[1] = test system: HIV viral RNA region within the Rev-binding site; settings: Zapp et al., Cell 74, 1993
[2] = human, in vivo
HCV = settings: various clinical trials

Compound: NC[C@@H]1O[C@H](O[C@H]2[C@@H](O)[C@H](O[C@@H]3[C@@H](O)[C@H](N)C[C@H](N)[C@H]3O[C@H]3O[C@H](CN)[C@@H](O)[C@H](O)[C@H]3N)O[C@@H]2CO)[C@H](N)[C@@H](O)[C@@H]1O [neomycin B]
- effect on Rev protein binding to HIV viral RNA [1]: blocks Rev protein binding

Compound: NC(=O)c1ncn([C@@H]2O[C@H](CO)[C@@H](O)[C@H]2O)n1 [ribavirin, 1-β-D-ribo-furanosyl-1,2,4-trizole-3-carboxamide]
- side effect [2]: can cause hemolytic anemia

Compound: IFN-α
- patients who initially responded to the therapy (HCV; patients treated with IFN-α): approximately 40%
- initial responders who relapsed after the treatment ended (HCV; share of the initial responders): 70%
